Values quoted from earlier work in patent US10342775B2, “Vitamin A for parenteral administration” (FRESENIUS KABI DEUTSCHLAND GMBH, priority 2015, dated 2019).

solubility in water: practically insoluble in water
SMILES: CCCCCCCCCCCCCCCC(=O)OC/C=C(C)/C=C/C=C(C)/C=C/C1=C(C)CCCC1(C)C [retinol palmitate]
